According to ChEMBL document CHEMBL6182855, “Design and synthesis of phenanthridinone and phenanthridine derivatives and their radiosensitizing activity” (2025):
Calls of active or inactive are those of the source. No cut-off for these calls is given here.

Columns and labels:
HCT-116 [1] = assay: Cytotoxicity against human HCT-116 cells assessed as cell killing at 0.5 uM incubated for 72 hrs by CCK-8 assay relative to control; assay type: functional
HCT-116 [2] = assay: Cytotoxicity against human HCT-116 cells assessed as cell growth inhibition incubated for 72 hrs by CCK-8 assay; assay type: functional
[3] = molecular target: Tyrosyl-DNA phosphodiesterase 1 (Homo sapiens) (UniProt Q9NUW8); assay: Inhibition of TDP1 (unknown origin) using (5'-FAM-AGGATCTAAAAGACTT-BHQ-3') as substrate at 100 uM by fluorescence assay
HCT-116 [4] = assay: Radiosensitization activity in human HCT-116 cells assessed as combination index at 0.25 uM incubated for 24 hrs in presence of IR-5 Gy by crystal violet staining based colony formation assay; assay type: functional
HCT-116 [5] = assay: Induction of cell cycle arrest in human HCT-116 cells assessed as accumulation of cells at S phase at 5 uM incubated for 24 hrs in presence of IR-4 Gy by PI staining based flow cytometric analysis (reference value: 13.71%); assay type: functional
HCT-116 [6] = assay: Induction of ROS generation in human HCT-116 cells at 5 to 10 uM by DCFH-DA staining based ELISA; assay type: functional, cell-based; settings: dose 5-10 µM
HCT-116 [7] = assay: Induction of cell cycle arrest in human HCT-116 cells assessed as accumulation of cells at S phase at 5 uM incubated for 24 hrs by PI staining based flow cytometric analysis (reference value: 17.14%); assay type: functional
HCT-116 [8] = assay: Induction of apoptosis in human HCT-116 cells assessed as early apoptotic cells at 5 uM incubated for 24 hrs by AnnexinV-FITC/PI staining based flow cytometry (reference value: 1.41%); assay type: functional
HCT-116 [9] = assay: Induction of DNA damage in human HCT-116 cells assessed as increase in gamma-H2AX fluorescence intensity at 10 uM incubated for 6 hrs in presence of IR 4 Gy by DAPI staining based immunofluorescence microscopic analysis; assay type: functional, cell-based
HCT-116 [10] = assay: Cytotoxicity against human HCT-116 cells assessed as cell survival at 0.5 uM incubated for 72 hrs by CCK-8 assay relative to control; assay type: functional; settings: read-out: Activity
HCT-116 [11] = assay: Induction of cell cycle arrest in human HCT-116 cells assessed as accumulation of cells at G0/G1 phase at 5 uM incubated for 24 hrs by PI staining based flow cytometric analysis (reference value: 58.75%); assay type: functional
HCT-116 [12] = assay: Induction of apoptosis in human HCT-116 cells assessed as late apoptotic cells at 5 uM incubated for 24 hrs by AnnexinV-FITC/PI staining based flow cytometry (reference value: 0.41%); assay type: functional
HCT-116 [13] = assay: Induction of apoptosis in human HCT-116 cells assessed as early apoptotic cells at 5 uM incubated for 24 hrs in presence of IR-4 Gy by AnnexinV-FITC/PI staining based flow cytometry (reference value: 4.88%); assay type: functional
HCT-116 [14] = assay: Induction of apoptosis in human HCT-116 cells assessed as viable cells at 5 uM incubated for 24 hrs by AnnexinV-FITC/PI staining based flow cytometry (reference value: 98.05%); assay type: functional; settings: read-out: Activity
HCT-116 [15] = assay: Radiosensitization activity in human HCT-116 cells incubated for 24 hrs in presence of IR-2 Gy by crystal violet staining based colony formation assay; assay type: functional, cell-based; settings: dose 0.1-0.5 µM
HCT-116 [16] = assay: Induction of ROS generation in human HCT-116 cells assessed as fold increase in ROS level at 10 uM in presence of IR 4 Gy by DCFH-DA staining based ELISA; assay type: functional
HCT-116 [17] = assay: Induction of DNA damage in human HCT-116 cells assessed as increase in gamma-H2AX fluorescence intensity at 10 uM incubated for 6 hrs by DAPI staining based immunofluorescence microscopic analysis; assay type: functional, cell-based
HCT-116 [18] = assay: Radiosensitization activity in human HCT-116 cells assessed as cell killing at 0.25 uM incubated for 24 hrs in presence of IR-5 Gy by crystal violet staining based colony formation assay relative to control; assay type: functional
HCT-116 [19] = assay: Induction of apoptosis in human HCT-116 cells assessed as viable cells at 5 uM incubated for 24 hrs in presence of IR-4 Gy by AnnexinV-FITC/PI staining based flow cytometry (reference value: 94.08%); assay type: functional; settings: read-out: Activity
HCT-116 [20] = assay: Induction of apoptosis in human HCT-116 cells assessed as late apoptotic cells at 5 uM incubated for 24 hrs in presence of IR-4 Gy by AnnexinV-FITC/PI staining based flow cytometry (reference value: 0.93%); assay type: functional
HCT-116 [21] = assay: Inhibition of colony formation in human HCT-116 cells at 0.25 uM incubated for 24 hrs by crystal violet staining based colony formation assay relative to control; assay type: functional
HCT-116 [22] = assay: Induction of ROS generation in human HCT-116 cells at 5 to 10 uM in presence of IR 4 Gy by DCFH-DA staining based ELISA; assay type: functional, cell-based; settings: dose 5-10 µM
HCT-116 [23] = assay: Induction of ROS generation in human HCT-116 cells assessed as fold increase in ROS level at 5 uM in presence of IR 4 Gy by DCFH-DA staining based ELISA; assay type: functional
HCT-116 [24] = assay: Radiosensitization activity in human HCT-116 cells assessed as combination index at 0.1 to 0.5 uM incubated for 24 hrs in presence of IR-2 Gy by crystal violet staining based colony formation assay; assay type: functional; settings: dose 0.1-0.5 µM
HCT-116 [25] = assay: Induction of cell cycle arrest in human HCT-116 cells assessed as accumulation of cells at G0/G1 phase at 5 uM incubated for 24 hrs in presence of IR-4 Gy by PI staining based flow cytometric analysis (reference value: 56.89%); assay type: functional
HCT-116 [26] = assay: Radiosensitizing activity in human HCT-116 cells assessed as reduction in cell viability at 0.5 uM co-treated with IR-2 Gy incubated for 72 hrs by CCK-8 assay (reference value: 37%); assay type: functional
HCT-116 [27] = assay: Induction of cell cycle arrest in human HCT-116 cells assessed as accumulation of cells at G2/M phase at 5 uM incubated for 24 hrs in presence of IR-4 Gy by PI staining based flow cytometric analysis (reference value: 29.00 %); assay type: functional
HCT-116 [28] = assay: Induction of cell cycle arrest in human HCT-116 cells assessed as accumulation of cells at G2/M phase at 5 uM incubated for 24 hrs by PI staining based flow cytometric analysis (reference value: 23.42 %); assay type: functional
HCT-116 [29] = assay: Cytotoxicity against human HCT-116 cells at 0.5 uM incubated for 72 hrs by CCK-8 assay; assay type: functional, cell-based
HCT-116 [30] = assay: Radiosensitizing activity in human HCT-116 cells assessed as cell killing at 0.5 uM co-treated with IR-2 Gy incubated for 72 hrs by CCK-8 assay (reference value: 37%); assay type: functional

Chain of Tyrosyl-DNA phosphodiesterase 1 (Homo sapiens) (Q9NUW8 whole entry): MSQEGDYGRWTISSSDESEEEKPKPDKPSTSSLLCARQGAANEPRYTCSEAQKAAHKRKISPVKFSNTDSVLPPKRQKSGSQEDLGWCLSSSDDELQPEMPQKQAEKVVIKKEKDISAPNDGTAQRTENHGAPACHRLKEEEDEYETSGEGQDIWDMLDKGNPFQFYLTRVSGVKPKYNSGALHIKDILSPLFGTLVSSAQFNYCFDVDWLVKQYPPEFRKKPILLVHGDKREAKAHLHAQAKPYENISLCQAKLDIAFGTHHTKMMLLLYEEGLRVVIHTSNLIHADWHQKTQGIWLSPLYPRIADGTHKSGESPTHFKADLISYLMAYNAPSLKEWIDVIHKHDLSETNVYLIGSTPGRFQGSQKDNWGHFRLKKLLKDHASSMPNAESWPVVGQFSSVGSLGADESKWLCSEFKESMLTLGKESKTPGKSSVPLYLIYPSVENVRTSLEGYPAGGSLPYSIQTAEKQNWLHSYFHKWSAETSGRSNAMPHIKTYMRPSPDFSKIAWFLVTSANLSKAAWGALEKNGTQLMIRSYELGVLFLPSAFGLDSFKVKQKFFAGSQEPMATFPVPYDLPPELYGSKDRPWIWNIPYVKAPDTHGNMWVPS

For `COc1cc2c(NCCN(C)C)nc3c4c(ccc3c2cc1OC)OCO4`, the Activity (HCT-116 [1]) was roughly 100%, the GI50 (HCT-116 [2]) was 0.47 µM and the inhibition [3] was “inactive”.
In the case of `COc1cc2c(=O)n(CCNC(=O)OC(C)(C)C)c3c4c(ccc3c2cc1OC)OCO4`, the GI50 (HCT-116 [2]) is reported as greater than 100 µM and the inhibition [3] is reported as “inactive”.
`COc1cc2c(=O)n(CC(=O)N3CCOCC3)c3c4c(ccc3c2cc1OC)OCO4` was tested, and the GI50 (HCT-116 [2]) was 54.2 µM and the inhibition [3] was “inactive”.
In the case of `COc1cc2c(OCCN3CCCC3)nc3c4c(ccc3c2cc1OC)OCO4`, the Activity (HCT-116 [1]) is reported as roughly 100%, the GI50 (HCT-116 [2]) is reported as 0.31 µM and the inhibition [3] is reported as “inactive”.
For `COc1cc2c(Nc3ccc(C(=O)N4CCOCC4)cc3)nc3c4c(ccc3c2cc1OC)OCO4`, the GI50 (HCT-116 [2]) was 5.26 µM and the inhibition [3] was “inactive”.
With `COc1cc2c(Nc3ccc(C(=O)N4CCC(OC)CC4)cc3)nc3c4c(ccc3c2cc1OC)OCO4` the GI50 (HCT-116 [2]) was 2.76 µM and the inhibition [3] was “inactive”.
`COc1cc2c(N3CCN(c4ncccn4)CC3)nc3c4c(ccc3c2cc1OC)OCO4` was tested, and the CI (HCT-116 [4]) was 0.29, the Activity (HCT-116 [5]) was 22.09% and the Activity (HCT-116 [6]) was “inactive”. The Activity (HCT-116 [7]) was 23.9%, the Activity (HCT-116 [8]) was 1.75% and the GI50 (HCT-116 [2]) was 6.08 µM. For the same compound, the Activity (HCT-116 [9]) was “Active”, the viability at 0.5 µM (HCT-116 [10]) was 64% and the Activity (HCT-116 [11]) was 36.95%. For the same compound, the Activity (HCT-116 [12]) was 2.1%, the inhibition [3] was “inactive” and the Activity (HCT-116 [13]) was 7.21%. For the same compound, the viability at 5 µM (HCT-116 [14]) was 95.2%, the Activity (HCT-116 [15]) was “Dose-dependent-effect” and the “fold change (FC)” value (HCT-116 [16]) was 1.8. For the same compound, the Activity (HCT-116 [17]) was “Active”, the Activity (HCT-116 [18]) was roughly 99% and the viability at 5 µM (HCT-116 [19]) was 89.4%. For the same compound, the Activity (HCT-116 [20]) was 3.11%, the inhibition at 0.25 µM (HCT-116 [21]) was 30% and the Activity (HCT-116 [22]) was “Active”. For the same compound, the “fold change (FC)” value (HCT-116 [23]) was 1.4, the CI (HCT-116 [24]) was 0.4 and the Activity (HCT-116 [25]) was 23.41%. For the same compound, the Activity (HCT-116 [26]) was less than 20%, the Activity (HCT-116 [27]) was 43.16% and the Activity (HCT-116 [28]) was 37.67%.
For `COc1cc2c(=O)n(CCN3CCN(C)CC3)c3c4c(ccc3c2cc1OC)OCO4`, the GI50 (HCT-116 [2]) was 9.95 µM and the inhibition [3] was “inactive”.
With `COc1cc2c(=O)n(CCN3CCCCC3)c3c4c(ccc3c2cc1OC)OCO4` the GI50 (HCT-116 [2]) was 0.81 µM, the inhibition [3] was “inactive” and the Activity (HCT-116 [29]) was “inactive”. It also gave an Activity (HCT-116 [30]) of 55%.
With `COc1cc2c(=O)n(CCN3CCOCC3)c3c4c(ccc3c2cc1OC)OCO4` the GI50 (HCT-116 [2]) was 3.22 µM and the inhibition [3] was “inactive”.
For `COc1cc2c(Nc3ccc(C(=O)N(C)C)cc3)nc3c4c(ccc3c2cc1OC)OCO4`, the GI50 (HCT-116 [2]) was 7.79 µM and the inhibition [3] was “inactive”.
`COc1cc2c(OCCN3CCN(C)CC3)nc3c4c(ccc3c2cc1OC)OCO4` was tested, and the GI50 (HCT-116 [2]) was 7.88 µM and the inhibition [3] was “inactive”.
With `COc1ccc(Cn2c(=O)c3cc(OC)c(OC)cc3c3ccc4c(c32)OCO4)cc1` the GI50 (HCT-116 [2]) was greater than 100 µM and the inhibition [3] was “inactive”.
In the case of `COc1cc2c(=O)n(CCc3cccs3)c3c4c(ccc3c2cc1OC)OCO4`, the GI50 (HCT-116 [2]) is reported as 44.8 µM and the inhibition [3] is reported as “inactive”.
`COc1cc2c(=O)n(Cc3ccc(OC(F)(F)F)cc3)c3c4c(ccc3c2cc1OC)OCO4` was tested, and the GI50 (HCT-116 [2]) was 4.79 µM and the inhibition [3] was “inactive”.
`COc1cc2c(Nc3ccc(C(=O)N4CCCC4)cc3)nc3c4c(ccc3c2cc1OC)OCO4` was tested, and the GI50 (HCT-116 [2]) was 1.46 µM and the inhibition [3] was “inactive”.
`COc1cc2c(=O)n(CCn3cccn3)c3c4c(ccc3c2cc1OC)OCO4` was tested, and the GI50 (HCT-116 [2]) was greater than 100 µM and the inhibition [3] was “inactive”.
For `COc1cc2c(=O)n(Cc3ccc(C(=O)O)cc3)c3c4c(ccc3c2cc1OC)OCO4`, the GI50 (HCT-116 [2]) was greater than 100 µM and the inhibition [3] was “inactive”.
In the case of `COc1cc2c(NCCN3CCCC3)nc3c4c(ccc3c2cc1OC)OCO4`, the GI50 (HCT-116 [2]) is reported as 2.11 µM, the viability at 0.5 µM (HCT-116 [10]) is reported as roughly 80% and the inhibition [3] is reported as “inactive”. For the same compound, the Activity (HCT-116 [26]) was “Active”.
In the case of `COc1cc2c(=O)n(CCN3CCCC3)c3c4c(ccc3c2cc1OC)OCO4`, the Activity (HCT-116 [1]) is reported as roughly 100%, the GI50 (HCT-116 [2]) is reported as 0.56 µM and the inhibition [3] is reported as “inactive”.
`COc1cc2c(=O)n(CCn3cccc3)c3c4c(ccc3c2cc1OC)OCO4` was tested, and the GI50 (HCT-116 [2]) was 17.3 µM and the inhibition [3] was “inactive”.
In the case of `COc1cc2c(OCCN(C)C)nc3c4c(ccc3c2cc1OC)OCO4`, the Activity (HCT-116 [1]) is reported as roughly 100%, the GI50 (HCT-116 [2]) is reported as 0.32 µM and the inhibition [3] is reported as “inactive”.
With `COc1cc2c(=O)n(CCN(C)C)c3c4c(ccc3c2cc1OC)OCO4` the Activity (HCT-116 [1]) was roughly 100%, the GI50 (HCT-116 [2]) was 0.55 µM and the inhibition [3] was “inactive”.
With `COc1cc2c(NCCN3CCN(C)CC3)nc3c4c(ccc3c2cc1OC)OCO4` the GI50 (HCT-116 [2]) was 0.85 µM and the inhibition [3] was “inactive”.
In the case of `COc1cc2c(Nc3ccc(C(=O)N4CCN(C)CC4)cc3)nc3c4c(ccc3c2cc1OC)OCO4`, the GI50 (HCT-116 [2]) is reported as 3.32 µM and the inhibition [3] is reported as “inactive”.
